This is an account of results in patent US6268391A, “Benzylidene-1,3-dihydro-indol-2-one derivatives a receptor tyrosine kinase inhibitors, particularly of Raf kinases” (Glaxo Wellcome Inc., priority 1997, dated 2001).

pIC50: −log10 of the molar value.

T1 sequence (P04049 whole entry): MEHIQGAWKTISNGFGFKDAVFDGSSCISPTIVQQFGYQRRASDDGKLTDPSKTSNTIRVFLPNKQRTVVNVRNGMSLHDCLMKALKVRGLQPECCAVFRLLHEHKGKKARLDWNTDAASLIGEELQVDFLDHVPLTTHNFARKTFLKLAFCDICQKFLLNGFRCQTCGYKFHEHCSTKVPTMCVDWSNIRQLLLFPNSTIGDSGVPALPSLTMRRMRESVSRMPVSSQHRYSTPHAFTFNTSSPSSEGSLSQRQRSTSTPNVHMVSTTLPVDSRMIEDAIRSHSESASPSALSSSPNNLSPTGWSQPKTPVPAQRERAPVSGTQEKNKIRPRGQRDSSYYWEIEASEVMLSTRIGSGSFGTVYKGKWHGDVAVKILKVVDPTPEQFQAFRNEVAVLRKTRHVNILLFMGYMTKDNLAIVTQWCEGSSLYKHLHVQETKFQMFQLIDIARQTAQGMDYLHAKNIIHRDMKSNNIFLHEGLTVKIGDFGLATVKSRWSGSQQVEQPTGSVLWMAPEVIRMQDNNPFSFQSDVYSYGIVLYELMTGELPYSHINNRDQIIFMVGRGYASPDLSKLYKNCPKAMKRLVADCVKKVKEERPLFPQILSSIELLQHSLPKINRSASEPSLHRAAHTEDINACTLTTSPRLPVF

One experiment addresses T1, Human cRaf1 (Homo sapiens, UniProt P04049).
T1 construct: poly-histidine (C); made in house
The experiment is described as follows: Raf kinase assay (cRaf1 assay / Raf/MEK cascade assay).
Settings: not given
The format is biochemical.
With `CN1CCN(C(=O)Oc2c(Br)cc(C=C3C(=O)Nc4ccc(I)cc43)cc2Br)CC1` [Example 153, 2,6-Dibromo-4-[(5-iodo-2-oxo-1,2-dihydro-3H-indol-3-ylidene)methyl]phenyl 4-methyltetrahydro-1(2H)-pyrazinecarboxylate], the pIC50 was 4.00 to 5.00.

Staying with this experiment, now noted: Table 3; read-out: Raf Kinase activity.
For the compound `CCN(CC)C(=O)Oc1c(Br)cc(C=C2C(=O)Nc3ccc(I)cc32)cc1Br` [Example 154, 2,6-Dibromo-4-[(5-iodo-2-oxo-1,2-dihydro-3H-indol-3-ylidene)methyl]phenyl N,N-diethylcarbamate], the pIC50 is 4.00 to 5.00.
The same measure, in the same setting: next, `O=C1Nc2ccc(C(=O)O)cc2C1=Cc1cc(Br)c(O)c(Br)c1` [Example 156, 3-(3,5-Dibromo-4-hydroxy-benzylidene)-2-oxo-2,3-dihydro-1H-indol-5-carboxylic acid]: more than 6.00.
Still for that read-out and setting: next, `O=C1Nc2ccc(S(=O)(=O)N(CCO)CCO)cc2C1=Cc1cc(Br)c(O)c(Br)c1` [Example 157, 3-[(3,5-Dibromo-4-hydroxyphenyl)methylidene]-N,N-bis(2-hydroxyethyl)-2-oxo-5-indolinesulfonamide]: more than 6.00; `O=C1Nc2ccc(NC(=O)c3ccccc3)cc2C1=Cc1cc(Br)c(O)c(Br)c1` [Example 158, N-3-[(3,5-Dibromo-4-hydroxyphenyl)methylidene]-2-oxo-2,3-dihydro-1H-indol-5-ylbenzamide]: more than 6.00; `CC(=O)Nc1ccc2c(c1)C(=Cc1cc(Br)c(O)c(Br)c1)C(=O)N2` [Example 159]: more than 6.00.
Still for that read-out and setting: next, `O=C(CO)Nc1ccc2c(c1)C(=Cc1cc(Br)c(O)c(Br)c1)C(=O)N2` [Example 160, N-3-[(3,5-Dibromo-4-hydroxyphenyl)methylidene]-2-oxo-2,3-dihydro-1H-indol-5-yl-2-hydroxyacetamide]: more than 6.00; `O=C1Nc2ccc(C(=O)NCCCc3ccccc3)cc2C1=Cc1cc(Br)c(O)c(Br)c1` [Example 161, 3-[(3,5-Dibromo-4-hydroxyphenyl)methylidene]-2-oxo-N-(3-phenylpropyl)-5-indolinecarboxamide]: more than 6.00; `O=C1Nc2ccc(C(=O)NCc3ccccc3)cc2C1=Cc1cc(Br)c(O)c(Br)c1` [Example 162, N-Benzyl-3-[(3,5-dibromo-4-hydroxyphenyl)methylidene]-2-oxo-5-indolinecarboxamide]: more than 6.00.
`CN(C)c1ccc2c(c1)C(=Cc1cc(Br)c(O)c(Br)c1)C(=O)N2` [Example 163, 3-[(3,5-Dibromo-4-hydroxyphenyl)methylidene]-5-(dimethylamino)-1,3-dihydro-2H-indol-2-one]: the pIC50 is more than 6.00.
The same measure, in the same setting: next, `CCN(CC)C(=O)Oc1c(Br)cc(C=C2C(=O)Nc3ccc(S(N)(=O)=O)cc32)cc1Br` [Example 164, 4-[5-(Aminosulfonyl)-2-oxo-1,2-dihydro-3H-indol-3-ylidene]methyl-2,6-dibromophenyl N,N-diethylcarbamate]: 5.00 to 6.00; `Cc1ccc2c3c(ccc2n1)NC(=O)C3=Cc1cc(Br)c(O)c(Br)c1` [Example 165, 1-[(3,5-Dibromo-4-hydroxyphenyl)methylidene]-7-methyl-1,3-dihydro-2H-pyrrolo[3,2-f]quinolin-2-one]: more than 6.00.
Consider `Nc1ccc2c(c1)C(=Cc1cc(Br)c(O)c(Br)c1)C(=O)N2` [Example 166, 5-Amino-3-[(3,5-dibromo-4-hydroxyphenyl)methylidene]-1,3-dihydro-2H-indol-2-one], for which the pIC50 was more than 6.00.
The same measure, in the same setting: next, `CCN(CC)C(=O)Oc1c(Br)cc(C=C2C(=O)Nc3ccc(C(=O)c4ccccc4)cc32)cc1Br` [Example 167, 4-[(5-Benzoyl-2-oxo-1,2-dihydro-3H-indol-3-yildene)methyl]-2,6-dibromophenyl N,N-diethylcarbamate]: 4.00 to 5.00; `CN(C)CCNC(=O)c1ccc2c(c1)C(=Cc1cc(Br)c(O)c(Br)c1)C(=O)N2` [Example 168, 3-[(3,5-Dibromo-4-hydroxyphenyl)methylidene]-N-(2-(dimethylamino)ethyl]-2-oxo-5-indolinecarboxamide]: more than 6.00.
Same read-out and setting: as for `O=C1Nc2ccc(-c3cc(C(F)(F)F)cc(C(F)(F)F)c3)cc2C1=Cc1cc(Br)c(O)c(Br)c1` [Example 169, 5-[3,5-bis(Trifluoromethyl)phenyl]-3-[(3,5-dibromo-4-hydroxyphenyl)methylidene]-1,3-dihydro-2H-indol-2-one], the figure is more than 6.00; as for `O=C1Nc2ccc(-c3ccc(Cl)cc3Cl)cc2C1=Cc1cc(Br)c(O)c(Br)c1` [Example 171, 3-[(3,5-Dibromo-4-hydroxyphenyl)methylidene]-5-(2,4-dichlorophenyl)-1,3-dihydro-2H-indol-2-one], more than 6.00; as for `O=C1Nc2ccc(C(=O)NCCO)cc2C1=Cc1cc(Br)c(O)c(Br)c1` [Example 172, 3-[(3,5-Dibromo-4-hydroxyphenyl)methylidene]-N-(2-hydroxyethyl)-2-oxo-5-indolinecarboxamide], more than 6.00.
Consider `CN(C)c1nc(-c2ccc3c(c2)C(=Cc2cc(Br)c(O)c(Br)c2)C(=O)N3)cs1` [Example 173, 3-[(3,5-Dibromo-4-hydroxyphenyl)methylidene]-5-[2-(dimethylamino)-1,3-thiazol-4-yl]-1,3-dihydro-2H-indol-2-one], for which the pIC50 was more than 6.00.
As to `CS(=O)(=O)c1ccc2c(c1)C(=Cc1cc(Br)c(O)c(Br)c1)C(=O)N2` [Example 174, 3-[(3,5-Dibromo-4-hydroxyphenyl)methylidene]-5-(methylsulfonyl)-1,3-dihydro-2H-indol-2-one], the pIC50 was more than 6.00.
On the same count and under the same terms, as for `NS(=O)(=O)c1ccc(-c2ccc3c(c2)C(=Cc2cc(Br)c(O)c(Br)c2)C(=O)N3)cc1` [Example 175, 4-3-[(3,5-Dibromo-4-hydroxyphenyl)methylidene]-2-oxo 2,3-dihydro-1H-indol-5-ylbenzenesulfonamide], the figure is more than 6.00; as for `C=Cc1ccc2c(c1)NC(=O)C2=Cc1cc(Br)c(O)c(Br)c1` [Example 176, 3-[(3,5-Dibromo-4-hydroxyphenyl)methylidene]-6-vinyl-1,3-dihydro-2H-indol-2-one], more than 6.00.
Still for that read-out and setting: next, `COC(=O)c1sccc1-c1ccc2c(c1)C(=Cc1cc(Br)c(O)c(Br)c1)C(=O)N2` [Example 177, Methyl 3-3-[(3,5 dibromo-4-hydroxyphenyl)methylidene]-2-oxo-2,3-dihydro-1H-indol-5-yl-2-thiophenecarboxylate]: more than 6.00.
Same read-out and setting: next, `N#Cc1ccccc1-c1ccc2c(c1)C(=Cc1cc(Br)c(O)c(Br)c1)C(=O)N2` [Example 178, 2-3-[(3,5 Dibromo-4-hydroxyphenyl)methylidene]-2-oxo-2,3-dihydro-1H-indol-5-ylbenzonitrile]: more than 6.00; `N#Cc1ccc2c(c1)NC(=O)C2=Cc1cc(Br)c(O)c(Br)c1` [Example 179, 3-[(3,5-Dibromo-4-hydroxyphenyl)methylidene]-2-oxo-6-indolinecarbonitrile]: more than 6.00; `CN(C)CCCNc1nc(-c2ccc3c(c2)C(=Cc2cc(Br)c(O)c(Br)c2)C(=O)N3)cs1` [Example 180, 3-[(3,5-Dibromo-4-hydroxyphenyl)methylidene]-5-(2-[3-(dimethylamino)propyl]amino-1,3-thiazol-4-yl)-1,3-dihydro-2H-indol-2-one]: more than 6.00.
